According to the supplement of paper PMC11061612:

Tests used:
[1] = compound: C1CC(C1)(C(=O)[O-])C(=O)[O-].N.N.[Pt+2] [Carboplatin]; settings: max 10 µM
Outline: (§1)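 After 24 hours at 37°C and 5% CO2 in 1536-well plates holding 7.5 μl of DMEM/F12 or RPMI with 10% FBS, cancer cell lines were dosed for 72 hours, with final DMSO typically 0.2%. Viability came from CellTiter-Glo 2.0 luminescence, scaled between the means of blank wells and DMSO wells. A non-linear mixed effects model fitted a two-parameter logistic curve to each dose response to give the single-agent IC50.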

[2] = compound: C1CN(CCC1(C(=O)N[C@@H](CCO)C2=CC=C(C=C2)Cl)N)C3=NC=NC4=C3C=CN4 [AZD5363]; settings: max 10 µM
Outline: as §1

[3] = compound: C=CCn1c(=O)c2cnc(Nc3ccc(N4CCN(C)CC4)cc3)nc2n1-c1cccc(C(C)(C)O)n1 [AZD1775]; settings: max 3 µM
Outline: as §1

[4] = compound: CC(=O)Nc1cccc(-n2c(=O)n(C3CC3)c(=O)c3c(Nc4ccc(I)cc4F)n(C)c(=O)c(C)c32)c1 [Trametinib]; settings: max 1 µM
Outline: as §1

[5] = compound: CC(=O)O[C@H]1C(=O)[C@@]2(C)[C@H]([C@H](OC(=O)c3ccccc3)[C@]3(O)C[C@H](OC(=O)[C@H](O)[C@@H](NC(=O)c4ccccc4)c4ccccc4)C(C)=C1C3(C)C)[C@]1(OC(C)=O)CO[C@@H]1C[C@@H]2O [Paclitaxel]; settings: max 3 µM
Outline: as §1

[6] = compound: CC(=O)c1c(C)c2cnc(Nc3ccc(N4CCNCC4)cn3)nc2n(C2CCCC2)c1=O [Palbociclib]; settings: max 10 µM
Outline: as §1

[7] = compound: CC(C)n1c(=O)n(C)c2cnc3cc(F)c(-c4ccc(OCCCN5CCCCC5)nc4)cc3c21 [AZD1390]; settings: max 0.3 µM
Outline: as §1

[8] = compound: CC1(C)CCC(CN2CCN(c3ccc(C(=O)NS(=O)(=O)c4ccc(NCC5CCOCC5)c([N+](=O)[O-])c4)c(Oc4cnc5[nH]ccc5c4)c3)CC2)=C(c2ccc(Cl)cc2)C1 [Venetoclax]; settings: max 1 µM
Outline: as §1

[9] = compound: CC1=C(C(=CC=C1)Cl)NC(=O)C2=CN=C(S2)NC3=CC(=NC(=N3)C)N4CCN(CC4)CCO [Dasatinib]; settings: max 2 µM
Outline: as §1

[10] = compound: CC1=CN2[C@@H](C1)C=NC3=CC(=C(C=C3C2=O)OC)OCCCCCOC4=C(C=C5C(=C4)N=C[C@@H]6CC(=CN6C5=O)C)OC [SG3199]; settings: max 0.001 µM
Outline: as §1

[11] = compound: CCN(CCO)CCCOc1ccc2c(Nc3cc(CC(=O)Nc4cccc(F)c4)[nH]n3)ncnc2c1 [AZD2811]; settings: max 1 µM
Outline: as §1

[12] = compound: CCc1c2c(nc3ccc(O)cc13)-c1cc3c(c(=O)n1C2)COC(=O)[C@]3(O)CC [SN-38]; settings: max 0.3 µM
Outline: as §1

[13] = compound: CN(C)CCCOc1ccc(-c2ccc3ncc4c(c3c2)n(C2CCOCC2)c(=O)n4C)cn1 [AZD0156]; settings: max 3 µM
Outline: as §1

[14] = compound: CN(CC[C@H](CSC1=CC=CC=C1)NC2=C(C=C(C=C2)S(=O)(=O)NC(=O)C3=CC=C(C=C3)N4CCC(CC4)[C@H](C5=CC=CC=C5C6=CC=C(C=C6)Cl)O)S(=O)(=O)C(F)(F)F)CCO [AZD4320]; settings: max 1 µM
Outline: as §1

[15] = compound: COc1cc(Nc2ncc3c(n2)-c2ccc(Cl)cc2C(c2c(F)cccc2OC)=NC3)ccc1C(=O)O [Alisertib]; settings: max 10 µM
Outline: as §1

[16] = compound: COc1cc([C@@H]2c3cc4c(cc3[C@@H](O[C@@H]3O[C@@H]5CO[C@@H](C)O[C@H]5[C@H](O)[C@H]3O)[C@H]3COC(=O)[C@H]23)OCO4)cc(OC)c1O [Etoposide]; settings: max 10 µM
Outline: as §1

[17] = compound: COc1cc2ncnc(Nc3ccc(F)c(Cl)c3)c2cc1OCCCN1CCOCC1 [Gefitinib]; settings: max 10 µM
Outline: as §1

[18] = compound: COc1cccc(OCCCN)c1-c1cc(Nc2cnc(C#N)cn2)n[nH]1 [Prexasertib]; settings: max 1 µM
Outline: as §1

[19] = compound: COc1cccc2c1C(=O)c1c(O)c3c(c(O)c1C2=O)C[C@@](O)(C(=O)CO)C[C@@H]3O[C@H]1C[C@H](N)[C@H](O)[C@H](C)O1 [Doxorubicin]; settings: max 1 µM
Outline: as §1

[20] = compound: COc1nnc2ccc(N3CCC(c4ccc(OCCN5CCN(C)C(=O)[C@H]5C)cc4)CC3)nn12 [AZD5153]; settings: max 1 µM
Outline: as §1

[21] = compound: CS(=O)(=O)CCNCc1ccc(-c2ccc3ncnc(Nc4ccc(OCc5cccc(F)c5)c(Cl)c4)c3c2)o1 [Lapatinib]; settings: max 10 µM
Outline: as §1

[22] = compound: C[C@@H](Nc1cc(F)cc(F)c1)c1cc(C(=O)N(C)C)cc2c(=O)cc(N3CCOCC3)oc12 [AZD8186]; settings: max 10 µM
Outline: as §1

[23] = compound: C[C@@H](Oc1cc(-c2cnn(C3CCNCC3)c2)cnc1N)c1c(Cl)ccc(F)c1Cl [Crizotinib]; settings: max 10 µM
Outline: as §1

[24] = compound: C[C@@H](c1ccc2nccn2c1)n1nnc2ncc(-c3cnn(C)c3)nc21 [Savolitinib]; settings: max 1 µM
Outline: as §1

[25] = compound: C[C@@H]1COCCN1C2=NC(=NC(=C2)C3(CC3)[S@](=N)(=O)C)C4=C5C=CNC5=NC=C4 [AZD6738]; settings: max 10 µM
Outline: as §1

[26] = compound: Cc1c2c(nn1C)CSCc1cc(n(C)n1)CSc1cc(c3ccccc3c1)OCCCc1c(C(=O)O)n(C)c3c-2c(Cl)ccc13 [AZD5991]; settings: max 1 µM
Outline: as §1

[27] = compound: Cc1cc2ncnn2cc1Nc1ncc2c(n1)n(C1CCOCC1)c(=O)n2C [AZD7648]; settings: max 10 µM
Outline: as §1

[28] = compound: Cc1nc(-c2cn3c(n2)-c2ccc(-c4cnn(C(C)(C)C(N)=O)c4)cc2OCC3)n(C(C)C)n1 [Taselisib]; settings: max 10 µM
Outline: as §1

[29] = compound: Cn1cnc2c(F)c(Nc3ccc(Br)cc3Cl)c(C(=O)NOCCO)cc21 [Selumetinib]; settings: max 10 µM
Outline: as §1

[30] = compound: N#Cc1cnc(Nc2cc(NC[C@H]3CNCCO3)c(C(F)(F)F)cn2)cn1 [SRA737]; settings: max 10 µM
Outline: as §1

[31] = compound: NC1(c2ccc(-c3nc4ccn5c(=O)[nH]nc5c4cc3-c3ccccc3)cc2)CCC1 [MK-2206]; settings: max 10 µM
Outline: as §1

[32] = compound: Nc1ccn([C@@H]2O[C@H](CO)[C@@H](O)C2(F)F)c(=O)n1 [Gemcitabine]; settings: max 0.3 µM
Outline: as §1

[33] = compound: O=C(Nc1ccc2[nH]nc(-c3ccncc3)c2c1)[C@@H]1CCN(CC(=O)N2CCN(c3ccc(-c4ncccn4)cc3)CC2)C1; settings: max 5 µM
Outline: as §1

[34] = compound: O=C(c1cc(Cc2n[nH]c(=O)c3ccccc23)ccc1F)N1CCN(C(=O)C2CC2)CC1 [Olaparib]; settings: max 10 µM
Outline: as §1

[35] = compound: O=c1[nH]cc(F)c(=O)[nH]1 [5-Fluorouracil]; settings: max 20 µM
Outline: as §1

Row | Cell Line | IC50, cell viability 72 h [1] [nM] | IC50, cell viability 72 h [2] [nM] | IC50, cell viability 72 h [3] [nM] | IC50, cell viability 72 h [4] [nM] | IC50, cell viability 72 h [5] [nM] | IC50, cell viability 72 h [6] [nM] | IC50, cell viability 72 h [7] [nM] | IC50, cell viability 72 h [8] [nM] | IC50, cell viability 72 h [9] [nM] | IC50, cell viability 72 h [10] [nM] | IC50, cell viability 72 h [11] [nM] | IC50, cell viability 72 h [12] [nM] | IC50, cell viability 72 h [13] [nM] | IC50, cell viability 72 h [14] [nM] | IC50, cell viability 72 h [15] [nM] | IC50, cell viability 72 h [16] [nM] | IC50, cell viability 72 h [17] [nM] | IC50, cell viability 72 h [18] [nM] | IC50, cell viability 72 h [19] [nM] | IC50, cell viability 72 h [20] [nM] | IC50, cell viability 72 h [21] [nM] | IC50, cell viability 72 h [22] [nM] | IC50, cell viability 72 h [23] [nM] | IC50, cell viability 72 h [24] [nM] | IC50, cell viability 72 h [25] [nM] | IC50, cell viability 72 h [26] [nM] | IC50, cell viability 72 h [27] [nM] | IC50, cell viability 72 h [28] [nM] | IC50, cell viability 72 h [29] [nM] | IC50, cell viability 72 h [30] [nM] | IC50, cell viability 72 h [31] [nM] | IC50, cell viability 72 h [32] [nM] | IC50, cell viability 72 h [33] [nM] | IC50, cell viability 72 h [34] [nM] | IC50, cell viability 72 h [35] [nM]
1 | OE33 (Esophageal Adenocarcinoma) | > 10000 | > 10000 | 1590 | > 1000 | 736 | > 10000 | > 300 | > 1000 | > 2000 | > 1 | > 1000 | 199 | > 3000 | > 1000 | > 10000 | > 10000 | > 10000 | 43.5 | > 1000 | > 1000 | > 10000 | > 10000 | > 10000 | > 1000 | 2590 | > 1000 | > 10000 | > 10000 | > 10000 | 7720 | > 10000 | 170 | > 5000 | > 10000 | > 20000
2 | COLO-668 (Small Cell Lung Carcinoma) | > 10000 | > 10000 | > 3000 | 408 | > 3000 | > 10000 | > 300 | > 1000 | > 2000 | > 1 | > 1000 | 5.32 | > 3000 | 319 | > 10000 | > 10000 | > 10000 | 63.7 | 329 | > 1000 | > 10000 | > 10000 | > 10000 | > 1000 | 8160 | > 1000 | > 10000 | 5340 | > 10000 | > 10000 | > 10000 | 41.3 | 4480 | > 10000 | > 20000
3 | ME-180 (Cervical Carcinoma) | > 10000 | 2130 | 1450 | > 1000 | 141 | > 10000 | > 300 | > 1000 | 1240 | > 1 | > 1000 | 15.8 | > 3000 | > 1000 | 9540 | 3730 | > 10000 | > 1000 | > 1000 | > 1000 | > 10000 | > 10000 | > 10000 | > 1000 | > 10000 | > 1000 | > 10000 | 734 | > 10000 | > 10000 | > 10000 | 130 | > 5000 | > 10000 | > 20000
4 | SNU-387 (Hepatocellular Carcinoma) | > 10000 | > 10000 | 1030 | 583 | 27.4 | > 10000 | > 300 | > 1000 | > 2000 | > 1 | > 1000 | > 300 | > 3000 | > 1000 | > 10000 | > 10000 | > 10000 | 555 | > 1000 | > 1000 | > 10000 | 8360 | > 10000 | > 1000 | > 10000 | > 1000 | > 10000 | > 10000 | > 10000 | > 10000 | > 10000 | > 300 | > 5000 | > 10000 | > 20000
